Patent publication US20080318911A1, “20-Cyclopropyl, 26,27-Alkyl/Haloalkyl Vitamin D3 Compounds and Methods of Use Thereof” (BIOXELL S.P.A., priority 2004, published 2008)
≈ marks a conversion by molar mass, not a printed value.

How the values were obtained:
RT112 = experiment: Proliferation assay using bladder cancer cell lines: RT112; type: cell-based, human; settings: 72 h culture, CyQuant proliferation assay
Procedure: (§1) Bladder cancer cell lines (T24, RT112, HT1376 and RT4 are human bladder cancer cell lines; NHEK are normal human keratinocytes) were obtained from the European Collection of Cell Cultures (Salisbury, UK). Cells were plated at 3×10^3 per well, in flat bottomed 96-well plates in 100 μl of DMEM medium containing: 5% Fetal Clone 1,50 μg/l gentamicin, 1 mM sodium pyruvate and 1% non-essential amino acids. After culturing for 24 h at 37° C. in 5% CO2, to allow cells to adhere to the plates, VDR ligands (compounds (1)-(14)) were added at concentrations ranging from 100 μM to 0.3 μM in 100 μl of above-mentioned complete medium. After a further 72 h of culture, cell proliferation was measured using a fluorescence-based proliferation assay kit. (CyQuant Cell Proliferation Assay Kit, Molecular Probes, Eugene, Oreg., USA). The IC50 was calculated from the regression curve of the titration data.

[1] = Theoretical maximum absorbable dose (MAD), human intestine; settings: for MAD (ug) human (PAMPA): calculated using PAMPA permeability
Procedure: (§2) To evaluate the intestinal absorption potential of selected compounds, the maximum absorbable dose (MAD) in mouse, rat and human intestines was also calculated using a modification of the original equation (Johnson 1996, Hilgers 2003): MAD (mg)=S·Pe·(A/ILV)·SIV·SITT (Eq. 1), where S is the solubility measured at pH 7.4 (mg/ml), Pe is the permeability measured in artificial membranes (PAMPA) or in the apical to basolateral direction of Caco-2 cells (cm/sec), A is the intestinal surface area (cm^2), ILV is the intestinal lumen volume (cm^3), SIV is the small intestinal volume (ml) and SITT is the small intestinal transit time (sec).

[2] = Determination of Maximum Tolerated Dose (MTD) in mice; settings: mouse, in vivo, po; female C57BL/6 mice, p.o. daily for four days; highest dose without hypercalcemia (serum calcium >10.7 mg/dl)
[3] = Permeability by passive diffusion (PAMPA); type: in vitro ADME; settings: for PAMPA % Memb: % retention in the membrane; for Papp at 4 h, 10 μM: PAMPA
Procedure: Permeability by Passive Diffusion (PAMPA). Experiments were performed in 96-well acceptor and donor plates using 15% soy lecithin in n-dodecane artificial membranes. The acceptor plate (96 well hydrophobic filter plate (MAIP N45, Millipore)) was prepared by adding 4 μL of artificial membrane material on the top of the filter and the plate was filled with 200 μL of HEPES buffered HBSS (pH 7.4). The donor plate (an indented 96-well plate from p-ION, MA) was filled with 200 μL of HEPES buffered HBSS (pH 7.4) containing 10 μM of the test compounds. The acceptor plate was placed onto the donor plate to form a “sandwich” and was incubated at 37° C. for 4 hours. After the incubation period, acceptor, donor and initial donor solution (reference) were analysed via LC-MS/MS. Data were reported as bilateral Peff in cm×10^−6/sec and % retention in the membrane.

[4] = system: human stromal bladder cells; experiment: Basal growth of human stromal bladder cells; type: cell-based; settings: FIG. 2
Excerpt: The Inventors confirmed the presence of vitamin D receptors (VDRs), as previously reported in the literature, on these cells (see below in FIG. 1).
The maximum tolerated dose (MTD) in rats is also listed for each compound (Table 5).

[5] = system: IFN-γ production by allogeneic PBMC; experiment: IFN-γ production in the mixed leukocyte response (MLR); type: cell-based; settings: 120 h; MLR of allogeneic PBMC, 5 days, ELISA; read-out: INF-γ IC50
Procedure: Immature dendritic cells (DC) were prepared as described in Romani, N. et al. (Romani, N. et al. (1996) J. Immunol. Meth. 196:137). IFN-γ production by allogeneic T cell activation in the mixed leukocyte response (MLR) was determined as described in Penna, G., et al., J Immunol., 164: 2405-2411 (2000).
Briefly, peripheral blood mononuclear cells (PBMC) were separated from buffy coats by Ficoll gradient and the same number (3×10^5) of allogeneic PBMC from 2 different donors were co-cultured in 96-well flat-bottom plates. The vitamin D3 compounds were added to each of the cultures.

NHEK = experiment: Proliferation assay: NHEK normal human keratinocytes; type: cell-based; settings: 72 h culture, CyQuant proliferation assay
Procedure: as §1

[6] = system: Renin mRNA in As4.1 cells; experiment: Renin mRNA inhibition in murine juxtaglomerular cell line As4.1; type: cell-based; settings: Mus musculus, 24 h, real time PCR normalized versus β-actin, read-out: Renin mRNA inh.As4.1/wt
Procedure: As4.1 cells (80% subconfluent) were treated in complete medium with compounds of the invention at 10^−8, 10^−9 and 10^−10 M for 24 h. Total RNA was extracted using RNeasy Mini kit (Qiagen); treated with DNase I (Qiagen) and Reverse Transcription Reagent (Applied Biosystems) with Random Examers were used for reverse transcription according to the manufacturers' instructions. Real Time PCR analysis was performed in multiplex using commercially available β-actin VIC-conjugated probe (cat. n. 4352341E, Applied Biosystems) and custom designed mRENIN FAM-conjugated probe (Assay by Design, Applied Biosystems; Forward: […]; Reverse: […]; Probe: FAM-[…]-MGB). Reactions were performed in a 25 μL volume containing 12,5 μl 2× Master Mix (Applied Biosystems), 10 ng/reaction/well cDNA, and 2,5 μM each gene-specific primer. An ABI PRISM 7700 analyzer (Applied Biosystems) was used at 50° C. for 2 minutes and 95° C. for 10 minutes, followed by 40 cycles at 95° C. for 15 seconds and 60° C. for 1 minute. Cycle threshold (Ct) values were exported onto Excel worksheets for analysis. Test cDNA results were normalized versus mouse β-actin housekeeping gene. Fold differences in gene expression between the subtracted versus the unsubtracted populations were expressed using the method of 2^−ΔΔCt. (Table 6)

RT4 = experiment: Proliferation assay using bladder cancer cell lines: RT4; type: cell-based, human; settings: 72 h culture, CyQuant proliferation assay
Procedure: as §1

[7] = Theoretical maximum absorbable dose (MAD), rat intestine; settings: for MAD (ug) rat (PAMPA): calculated using PAMPA permeability
Procedure: as §2

[8] = molecular target: T1, human cDNA expressed CYP3A4 (Homo sapiens, UniProt P08684); experiment: Metabolic stability (hCYP3A4); type: in vitro ADME; settings: 2 μM, 60 min at 37° C.
T1 construct: purchased Gentest
Procedure: Metabolic Stability (hCYP34A4). The relative stability of the substrate was determined by measuring the amount of substrate remaining following incubation with human cDNA expressed CYP3A4 microsomal preparations (Gentest, 6 pmol) against a control microsomal incubation containing no active cytochrome P450. The assay was performed in a 96-well plate format. Each compound was incubated at a concentration of 2 μM for 60 min at 37° C. LC-MS/MS was used for determining the compound remaining after incubation. The results were expressed as % remaining.

[9] = Solubility in aqueous buffer; type: physicochemical; settings: kinetic from dmso stock; for solubility at 2 h: pH 7, 2 h; for solubility at 24 h: pH 7, 24 h; for solubility: pH 7.4, aqueous buffer
Procedure: […] A 96-well plate format assay was used. […] Solutions were filtered through a 0.22 μm and concentrations of the concentration of the compound in the filtrate was determined using LC-MS/MS in comparison with 1 and 10 μM standards. The measurements were expressed as mM.

[10] = Theoretical maximum absorbable dose (MAD), mouse intestine; settings: for MAD (ug) mouse (PAMPA): calculated using PAMPA permeability
Procedure: as §2

Caco-2 cells = experiment: Apparent permeability on Caco-2 cells; type: in vitro ADME, Human; settings: for Papp_A > B / Papp_B >: 10 μM, 2 h; for Mass Bal A > B: unit assumed
Procedure: (§3) Apparent Permeability on Caco-2 cells. Human colon adenocarcinoma (Caco-2) cells were obtained from the American Type Culture Collection (Rockville, Md.). Permeability studies were performed using a 24-well format in both transport directions, apical to basolateral (A→B) and basolateral to apical (B→A), on Caco-2 monolayers. Fresh donor solution containing 10 μM test compound was added to either the apical or the basolateral side, while drug-free medium was placed on the opposite side. The 24-transwell plates were placed on a plate shaker at 37° C. After 2 h, the buffer from the receiving and donor chambers were collected and aliquots were analysed via LC-MS/MS. The data reported were the permeability cm·10^−6/sec and the efflux ratio.

[11] = Apparent permeability on Caco-2 cells; type: in vitro ADME, Human; settings: human, Caco-2, Table 8; for Papp A→B at 2 h, 10 μM: apical to basolateral, read-out: Caco2 Papp_AB; for Papp B→A at 2 h, 10 μM: basolateral to apical, read-out: Caco2 Papp_BA
Procedure: as §3

HT1376 = experiment: Proliferation assay using bladder cancer cell lines: HT1376; type: cell-based; settings: Homo sapiens, HT-1376; 72 h culture, CyQuant proliferation assay
Procedure: as §1

[12] = calculated using Caco2-AB permeability

T1 sequence (P08684 whole entry): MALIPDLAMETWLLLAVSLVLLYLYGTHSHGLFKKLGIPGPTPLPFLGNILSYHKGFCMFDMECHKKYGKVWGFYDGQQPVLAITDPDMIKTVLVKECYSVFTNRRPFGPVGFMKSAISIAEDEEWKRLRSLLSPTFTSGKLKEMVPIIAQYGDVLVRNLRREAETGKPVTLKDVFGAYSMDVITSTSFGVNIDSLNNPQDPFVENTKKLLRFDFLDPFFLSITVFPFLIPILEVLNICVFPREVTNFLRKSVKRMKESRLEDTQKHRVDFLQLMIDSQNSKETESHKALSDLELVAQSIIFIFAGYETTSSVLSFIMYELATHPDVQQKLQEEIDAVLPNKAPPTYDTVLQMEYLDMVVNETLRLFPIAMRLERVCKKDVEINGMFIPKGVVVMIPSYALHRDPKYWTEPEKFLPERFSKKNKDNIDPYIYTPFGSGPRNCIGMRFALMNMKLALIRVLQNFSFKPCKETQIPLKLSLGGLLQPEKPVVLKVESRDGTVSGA

| SMILES | IC50 (RT112; Homo sapiens, RT-112) [µM] | MAD (ug) human (PAMPA) [1] [µg] | MTD at 4 days [2] [µg/kg] | PAMPA % Memb [3] [%] | Papp at 4 h, 10 μM ([3]; pH 7.4, Table 8) [×10⁻⁶ cm/s] | inhibiting the basal growth of bladder cells [4] | IC50 [5] [pM] | IC50 (NHEK) [µM] | IC50 [6] [µM] | IC50 (RT4; Homo sapiens, RT-4) [µM] | MAD (ug) rat (PAMPA) [7] [µg] | CYP3A4 stability [8] [% remaining] | solubility at 2 h [9] [µM] | solubility at 24 h [9] [µM] | solubility [9] [µg/mL] | MAD (ug) mouse (PAMPA) [10] [µg] | Papp_A > B (Caco-2 cells; apical to basolateral) [cm·10^−6/sec] | Mass Bal A > B (Caco-2 cells; apical to basolateral) [%] | Mass Bal B > A (Caco-2 cells; basolateral to apical) [%] | Papp_B > (Caco-2 cells; basolateral to apical) [cm·10^−6/sec] | further results |
| --- | --- | --- | --- | --- | --- | --- | --- | --- | --- | --- | --- | --- | --- | --- | --- | --- | --- | --- | --- | --- | --- |
| C=C1/C(=C\C=C2/CCC[C@]3(C)C(C4(C/C=C\C(O)(C(F)(F)F)C(F)(F)F)CC4)=CCC23)CC(O)C[C@@H]1O (stereo partly drawn) [Compound 8, 1α,25-Dihydroxy-16-ene-20-cyclopropyl-23,24-Z-ene-26,27-hexafluoro-cholecalciferol] | 15.5 | 716.81 | 1 | 57.6 | 50 | effective | 33 | 3.6 | 0.00161 | 3.3 | 10.28 | 52.7 | < 1 | 1.6 (≈ 0.852 µg/mL) | 0.533 (≈ 1 µM) | 2.11 | – | – | – | – | – |
| C[C@]12CCC/C(=C\C=C3\CC(O)C[C@H](O)C3)C1CC=C2C1(C/C=C\C(O)(C(F)(F)F)C(F)(F)F)CC1 (stereo partly drawn) [Compound 7, 1α,25-Dihydroxy-16-ene-20-cyclopropyl-23,24-Z-ene-26,27-hexafluoro-19-nor-cholecalciferol] | 9.6 | 2788.31 | 0.3 | 58.1 | 47.8 | – | 55 | 4.4 | 0.00258 | 2.2 | 39.99 | 58.3 | 4.2 (≈ 2.19 µg/mL) | 4.1 (≈ 2.13 µg/mL) | 2.17 (≈ 4.16 µM) | 8.20 | 0.0 | 13.1 | 83.3 | 0.0 | Caco2 Papp_AB (Caco-2 cells; apical to basolateral, Table 8): 0.00 10-6 cm/sec; Caco2 Papp_BA (Caco-2 cells; basolateral to apical, Table 8): 0.00 10-6 cm/sec |
| CC(C)(O)CCCC1(C2=CCC3/C(=C/C=C4/CC(O)C[C@H](O)C4)CCC[C@]23C)CC1 (stereo partly drawn) [Compound 9, 1α,25-Dihydroxy-16-ene-20-cyclopropyl-19-nor-cholecalciferol] | > 30 | 8023.11 | 1 | 97.1 | 36 | – | 31 | 6.1 | 0.00878 | 9.9 | 115.08 | 33.3 | 19.9 (≈ 8.25 µg/mL) | 21.6 (≈ 8.96 µg/mL) | 8.27 (≈ 19.9 µM) | 23.61 | 4.8 | 36.7 | 89.1 | 6.5 | Papp at 4 h, 10 μM ([3]; pH 7.4, 10 μM, pH 7.4, 37° C., 4 hours, Table 9): 36 ×10⁻⁶ cm/s; Papp A→B at 2 h, 10 μM [11]: 4.82 ×10⁻⁶ cm/s; Papp B→A at 2 h, 10 μM [11]: 6.46 ×10⁻⁶ cm/s |
| C=C1/C(=C\C=C2/CCC[C@]3(C)C([C@H](C)CCCC(C)(C)O)CC[C@@H]23)C[C@@H](O)C[C@@H]1O (stereo partly drawn) [1,25(OH)2D3, 1,25-dihydroxycholecalciferol, reference compound] | – | – | 0.3 | – | – | effective | 49.6 | 4.5 | – | – | – | – | – | – | – | – | – | – | – | – | IC50 (RT112): 28.7 µM; IC50 (RT112; Homo sapiens, RT-112, 72 h): 19 µM; IC50 (RT4): 26 µM; IC50 (RT4; Homo sapiens, RT-4, 72 h): 45 µM; IC50 (HT1376): 50 µM |
| C[C@]12CCC/C(=C\C=C3\CC(O)C[C@H](O)C3)C1CC=C2C1(CC#CC(O)(C(F)(F)F)C(F)(F)F)CC1 (stereo partly drawn) [Compound 3, 1α,25-Dihydroxy-16-ene-20-cyclopropyl-23,24-yne-26,27-hexafluoro-19-nor-cholecalciferol] | 22.7 | – | 0.3 | – | – | – | 14 | 1 | 0.00073 | 5.2 | – | 45.5 | 1.3 (≈ 0.674 µg/mL) | 7.1 (≈ 3.68 µg/mL) | 0.674 (≈ 1.3 µM) | – | 3.0 | 8.8 | 50.5 | 6.0 | MAD (ug) human (Caco2-AB) [1, 12]: 54.43 (Caco2-AB) ug; MAD (ug) rat (Caco2-AB) [7, 12]: 0.78 (Caco2-AB) ug; MAD (ug) mouse (Caco2-AB) [10, 12]: 0.16 (Caco2-AB) ug; Papp A→B at 2 h, 10 μM [11]: 3 ×10⁻⁶ cm/s; Papp B→A at 2 h, 10 μM [11]: 6 ×10⁻⁶ cm/s |
